Measurements as given in paper PMC11995216, “End-to-End Backbone Cyclization Enhances Passive Permeability of bRo5 Oligomeric Depsipeptides with Nonlinear Size Dependence” (ACS Medicinal Chemistry Letters, 2025).
Several values for one entry are separate records, joined by “and”; a condition that tells them apart may be missing. Equal entries are not always repeated. Where two headings read alike, the source gives them in different places.

Legend:
[1] = system: PAMPA; settings: UV detection
[2] = system: PAMPA
[3] = PAMPA, 500 uM
[4] = in vitro; settings: PAMPA, Papp
[5] = system: PAMPA; settings: calculated using Supplement Equation 1, UV detection
[6] = system: PAMPA; settings: initial concentration 500 uM, UV detection
[7] = system: PAMPA; settings: initial concentration 500 uM

For `CCCCC[C@@H]1OC(=O)[C@@H](C)N(C)C(=O)[C@H](CCCCC)OC(=O)[C@@H](C)N(C)C1=O` [Compound C1.2], the % recovery ([1]; Well 1 / %R, Well 1) was 90%, the % recovery ([1]; Well 2 / %R, Well 2) was 90% and 92% and the % recovery ([1]; Well 3 / %R, Well 3) was 93% and 90%. The % recovery ([1]; Well 4 / %R, Well 4) was 92%, the % recovery ([1]; Well 5 / %R, Well 5) was 88% and 89% and the Papp ([2]; Papp (x 10^-6 cm/s) – ELSD Detection / [row 1], ELSD Detection) was 4.36 ×10⁻⁶ cm/s. For the same molecule, the Papp ([2]; Papp (x 10^-6 cm/s) – ELSD Detection / [row 2], ELSD Detection) was 4.48 ×10⁻⁶ cm/s, the Papp ([2]; Papp (x 10^-6 cm/s) – ELSD Detection / [row 3], ELSD Detection) was 4.72 ×10⁻⁶ cm/s and the Papp ([2]; Papp (x 10^-6 cm/s) – ELSD Detection / [row 4], ELSD Detection) was 4.83 ×10⁻⁶ cm/s. It also gave a Papp ([2]; Papp (x 10^-6 cm/s) – ELSD Detection / [row 5], ELSD Detection) of 4.34 ×10⁻⁶ cm/s, a Papp ([2]; Papp (x 10^-6 cm/s) – ELSD Detection / [row 6], ELSD Detection) of 4.86 ×10⁻⁶ cm/s and a Papp ([2]; Papp (x 10^-6 cm/s) – ELSD Detection / [row 7], ELSD Detection) of 4.88 ×10⁻⁶ cm/s. It also gave a Papp ([2]; Papp (x 10^-6 cm/s) – ELSD Detection / [row 8], ELSD Detection) of 5.23 ×10⁻⁶ cm/s, a Papp ([2]; Papp (x 10^-6 cm/s) – ELSD Detection / [row 9], ELSD Detection) of 5.23 ×10⁻⁶ cm/s and a Papp ([2]; Papp (x 10^-6 cm/s) – ELSD Detection / [row 10], ELSD Detection) of 4.89 ×10⁻⁶ cm/s. For the same molecule, the Papp ([2]; Papp (x 10^-6 cm/s) – UV Detection / [row 1], UV Detection) was 4.63 ×10⁻⁶ cm/s, the Papp ([2]; Papp (x 10^-6 cm/s) – UV Detection / [row 2], UV Detection) was 4.93 ×10⁻⁶ cm/s and the Papp ([2]; Papp (x 10^-6 cm/s) – UV Detection / [row 3], UV Detection) was 5.16 ×10⁻⁶ cm/s. It also gave a Papp ([2]; Papp (x 10^-6 cm/s) – UV Detection / [row 4], UV Detection) of 5.2 ×10⁻⁶ cm/s, a Papp ([2]; Papp (x 10^-6 cm/s) – UV Detection / [row 6], UV Detection) of 4.49 ×10⁻⁶ cm/s and a Papp ([2]; Papp (x 10^-6 cm/s) – UV Detection / [row 7], UV Detection) of 5.18 ×10⁻⁶ cm/s. For the same molecule, the Papp ([2]; Papp (x 10^-6 cm/s) – UV Detection / [row 8], UV Detection) was 5.55 ×10⁻⁶ cm/s, the Papp ([2]; Papp (x 10^-6 cm/s) – UV Detection / [row 9], UV Detection) was 5.44 ×10⁻⁶ cm/s and the Papp ([2]; Papp (x 10^-6 cm/s) – UV Detection / [row 10], UV Detection) was 4.87 ×10⁻⁶ cm/s. The LogPapp [3] was -5.30 ± 0.03, the Δ % diffusion [3] was “↑5%” and the Papp at 500 uM [4] was 5.05 ± 0.33 ×10⁻⁶ cm/s. For the same molecule, the Papp at 500 uM ([4]; Ave) was 4.78 ×10⁻⁶ cm/s, the %T ([5]; Well 1 / %T, Well 1) was 0.56% and 0.55% and the %T ([5]; Well 2 / %T, Well 2) was 0.58% and 0.6%. For the same molecule, the %T ([5]; Well 3 / %T, Well 3) was 0.6% and 0.62%, the %T ([5]; Well 4 / %T, Well 4) was 0.6% and 0.61% and the %T ([5]; Well 5 / %T, Well 5) was 0.59% and 0.57%. For the same molecule, the donor concentration after incubation ([6]; Well 1 / [donor], Well 1) was 356 µM, the donor concentration after incubation ([6]; Well 2 / [donor], Well 2) was 347 µM and 350 µM and the donor concentration after incubation ([6]; Well 3 / [donor], Well 3) was 356 µM and 338 µM. For the same molecule, the donor concentration after incubation ([6]; Well 4 / [donor], Well 4) was 346 µM, the donor concentration after incubation ([6]; Well 5 / [donor], Well 5) was 339 µM and 346 µM and the Acceptor Concentration ([7]; Acceptor Concentration (uM) – ELSD Detection / [row 1], ELSD Detection) was 94.8 µM. The Acceptor Concentration ([7]; Acceptor Concentration (uM) – ELSD Detection / [row 2], ELSD Detection) was 98.9 µM, the Acceptor Concentration ([7]; Acceptor Concentration (uM) – ELSD Detection / [row 3], ELSD Detection) was 102 µM and the Acceptor Concentration ([7]; Acceptor Concentration (uM) – ELSD Detection / [row 4], ELSD Detection) was 107 µM. It also gave an Acceptor Concentration ([7]; Acceptor Concentration (uM) – ELSD Detection / [row 5], ELSD Detection) of 98.1 µM, an Acceptor Concentration ([7]; Acceptor Concentration (uM) – ELSD Detection / [row 6], ELSD Detection) of 113 µM and an Acceptor Concentration ([7]; Acceptor Concentration (uM) – ELSD Detection / [row 7], ELSD Detection) of 118 µM. It also gave an Acceptor Concentration ([7]; Acceptor Concentration (uM) – ELSD Detection / [row 8], ELSD Detection) of 122 µM, an Acceptor Concentration ([7]; Acceptor Concentration (uM) – ELSD Detection / [row 9], ELSD Detection) of 113 µM and an Acceptor Concentration ([7]; Acceptor Concentration (uM) – ELSD Detection / [row 10], ELSD Detection) of 109 µM. It also gave an Acceptor Concentration ([7]; Acceptor Concentration (uM) – UV Detection / [row 1], UV Detection) of 98.5 µM, an Acceptor Concentration ([7]; Acceptor Concentration (uM) – UV Detection / [row 2], UV Detection) of 103 µM and an Acceptor Concentration ([7]; Acceptor Concentration (uM) – UV Detection / [row 3], UV Detection) of 111 µM. The Acceptor Concentration ([7]; Acceptor Concentration (uM) – UV Detection / [row 4], UV Detection) was 108 µM, the Acceptor Concentration ([7]; Acceptor Concentration (uM) – UV Detection / [row 5], UV Detection) was 103 µM and the Acceptor Concentration ([7]; Acceptor Concentration (uM) – UV Detection / [row 6], UV Detection) was 95 µM. For the same molecule, the Acceptor Concentration ([7]; Acceptor Concentration (uM) – UV Detection / [row 7], UV Detection) was 109 µM, the Acceptor Concentration ([7]; Acceptor Concentration (uM) – UV Detection / [row 8], UV Detection) was 114 µM and the Acceptor Concentration ([7]; Acceptor Concentration (uM) – UV Detection / [row 9], UV Detection) was 114 µM.
